What follows are compounds tested against T1, human PTH1 receptor (Homo sapiens, UniProt Q03431) (assay: In vitro cAMP signal activity in HKRK-B7 cells (LLC-PK1 cells overexpressing the human PTH1 receptor)). Details: HKRK-B7 cells; compound at 1×10^−3 M; cAMP produced as percentage of that produced by hPTH(1-34) at 100 nM.
T1 sequence (Q03431 27-593): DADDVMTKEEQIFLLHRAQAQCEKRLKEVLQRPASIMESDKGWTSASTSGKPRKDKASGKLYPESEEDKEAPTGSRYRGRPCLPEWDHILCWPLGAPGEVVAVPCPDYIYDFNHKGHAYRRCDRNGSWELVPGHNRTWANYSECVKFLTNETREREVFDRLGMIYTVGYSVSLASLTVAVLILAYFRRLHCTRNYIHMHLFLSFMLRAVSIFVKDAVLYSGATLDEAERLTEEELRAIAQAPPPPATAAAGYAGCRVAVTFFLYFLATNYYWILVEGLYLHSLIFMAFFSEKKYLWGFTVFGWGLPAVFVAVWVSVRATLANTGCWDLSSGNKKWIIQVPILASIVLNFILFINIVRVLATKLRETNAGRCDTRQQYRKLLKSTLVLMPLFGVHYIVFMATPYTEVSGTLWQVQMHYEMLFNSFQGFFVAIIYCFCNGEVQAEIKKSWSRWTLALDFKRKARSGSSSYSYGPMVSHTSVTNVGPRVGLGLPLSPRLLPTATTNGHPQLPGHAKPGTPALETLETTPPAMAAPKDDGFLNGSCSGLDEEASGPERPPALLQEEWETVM
Type: cell-based

Structure (SMILES) | cAMP production activity (%)
O=C1NC(C2CCCCC2)=NC12CCN(S(=O)(=O)c1cccc(Cl)c1)CC2 [Compound 1, 8-(3-Chloro-benzenesulfonyl)-2-cyclohexyl-1,3,8-triaza-spiro[4.5]dec-1-en-4-one] | 42%
O=C1NC(c2ccncc2)=NC12CCN(S(=O)(=O)c1cccc(Cl)c1)CC2 [Compound 2, 8-(3-chloro-benzenesulfonyl)-2-pyridin-4-yl-1,3,8-triaza-spiro[4.5]dec-1-en-4-one] | 1.0%
CCCC1=NC2(CCN(S(=O)(=O)c3cccc(Cl)c3)CC2)C(=O)N1 [Compound 3, 8-(3-chloro-benzenesulfonyl)-2-propyl-1,3,8-triaza-spiro[4.5]dec-1-en-4-one] | 20%
CC(C)C1=NC2(CCN(S(=O)(=O)c3cccc(Cl)c3)CC2)C(=O)N1 [Compound 4, 8-(3-chloro-benzenesulfonyl)-2-isopropyl-1,3,8-triaza-spiro[4.5]dec-1-en-4-one] | 11%
COc1cccc(C2=NC3(CCN(S(=O)(=O)c4cccc(Cl)c4)CC3)C(=O)N2)c1 [Compound 5, 8-(3-chloro-benzenesulfonyl)-2-(3-methoxy-phenyl)-1,3,8-triaza-spiro[4.5]dec-1-en-4-one] | 2.5%
O=C1NC(c2cccc(Cl)c2)=NC12CCN(S(=O)(=O)c1cccc(Cl)c1)CC2 [Compound 6, 8-(3-chloro-benzenesulfonyl)-2-(3-chloro-phenyl)-1,3,8-triaza-spiro[4.5]dec-1-en-4-one] | 4.2%
O=C1NC(Cc2ccccc2)=NC12CCN(S(=O)(=O)c1cccc(Cl)c1)CC2 [Compound 7, 2-benzyl-8-(3-chloro-benzenesulfonyl)-1,3,8-triaza-spiro[4.5]dec-1-en-4-one] | 13%
CC1=NC2(CCN(S(=O)(=O)c3cccc(Cl)c3)CC2)C(=O)N1 [Compound 8, 8-(3-chloro-benzenesulfonyl)-2-methyl-1,3,8-triaza-spiro[4.5]dec-1-en-4-one] | 2.6%
O=C1NC(c2ccccc2-c2ccccc2)=NC12CCN(S(=O)(=O)c1cccc(Cl)c1)CC2 [Compound 10, 2-biphenyl-2-yl-8-(3-chloro-benzenesulfonyl)-1,3,8-triaza-spiro[4.5]dec-1-en-4-one] | 2.4%
Cc1ccccc1C1=NC2(CCN(S(=O)(=O)c3cccc(Cl)c3)CC2)C(=O)N1 [Compound 11, 8-(3-chloro-benzenesulfonyl)-2-o-tolyl-1,3,8-triaza-spiro[4.5]dec-1-en-4-one] | 16%
O=C1NC(c2ccc(C(F)(F)F)cc2)=NC12CCN(S(=O)(=O)c1cccc(Cl)c1)CC2 [Compound 12, 8-(3-chloro-benzenesulfonyl)-2-(4-trifluoromethyl-phenyl)-1,3,8-triaza-spiro[4.5]dec-1-en-4-one] | 12%
O=C1NC(c2cccc(OC(F)(F)F)c2)=NC12CCN(S(=O)(=O)c1cccc(Cl)c1)CC2 [Compound 13, 8-(3-chloro-benzenesulfonyl)-2-(3-trifluoromethoxy-phenyl)-1,3,8-triaza-spiro[4.5]dec-1-en-4-one] | 31%
CC1(C2=NC3(CCN(S(=O)(=O)c4cccc(Cl)c4)CC3)C(=O)N2)CCCCC1 [Compound 14, 8-(3-chloro-benzenesulfonyl)-2-(1-methyl-cyclohexyl)-1,3,8-triaza-spiro[4.5]dec-1-en-4-one] | 38%
CC(C)(C)C1=NC2(CCN(S(=O)(=O)c3cccc(Cl)c3)CC2)C(=O)N1 [Compound 16, 2-tert-butyl-8-(3-chloro-benzenesulfonyl)-1,3,8-triaza-spiro[4.5]dec-1-en-4-one] | 41%
O=C1NC(C2CCC(C(F)(F)F)CC2)=NC12CCN(S(=O)(=O)c1cccc(Cl)c1)CC2 (centres unmarked) [Compound 17, 8-(3-chloro-benzenesulfonyl)-2-(4-trifluoromethyl-cyclohexyl)-1,3,8-triaza-spiro[4.5]dec-1-en-4-one] | 39%
CC(C)(C)OC(=O)N1CCCC(C2=NC3(CCN(S(=O)(=O)c4cccc(Cl)c4)CC3)C(=O)N2)C1 (centres unmarked) [Compound 18, 3-[8-(3-chloro-benzenesulfonyl)-4-oxo-1,3,8-triaza-spiro[4.5]dec-1-en-2-yl]-piperidine-1-carboxylic acid tert-butyl ester] | 44%
CC1CCCC(C2=NC3(CCN(S(=O)(=O)c4cccc(Cl)c4)CC3)C(=O)N2)C1 (centres unmarked) [Compound 19, 8-(3-chloro-benzenesulfonyl)-2-(3-methyl-cyclohexyl)-1,3,8-triaza-spiro[4.5]dec-1-en-4-one] | 35%
CC1CCCCC1C1=NC2(CCN(S(=O)(=O)c3cccc(Cl)c3)CC2)C(=O)N1 (centres unmarked) [Compound 20, 8-(3-chloro-benzenesulfonyl)-2-(2-methyl-cyclohexyl)-1,3,8-triaza-spiro[4.5]dec-1-en-4-one] | 38%
CCC[C@H]1CC[C@H](C2=NC3(CCN(S(=O)(=O)c4cccc(Cl)c4)CC3)C(=O)N2)CC1 [Compound 21, 8-(3-chloro-benzenesulfonyl)-2-(4-propyl-cyclohexyl)-1,3,8-triaza-spiro[4.5]dec-1-en-4-one] | 42%
O=C1NC([C@H]2C[C@H]3CC[C@@H]2C3)=NC12CCN(S(=O)(=O)c1cccc(Cl)c1)CC2 [Compound 22, 2-(1R,2S,4S)-bicyclo[2.2.1]hept-2-yl-8-(3-chloro-benzenesulfonyl)-1,3,8-triaza-spiro[4.5]dec-1-en-4-one] | 43%
O=C1NC([C@@H]2C[C@H]3CC[C@@H]2C3)=NC12CCN(S(=O)(=O)c1cccc(Cl)c1)CC2 [Compound 23, 2-(1R,2R,4S)-bicyclo[2.2.1]hept-2-yl-8-(3-chloro-benzenesulfonyl)-1,3,8-triaza-spiro[4.5]dec-1-en-4-one] | 41%

Continued, values first:

cAMP production activity (%) | Structure (SMILES)
103% | Cc1cc(N2C(=O)CCC2CO)ccc1/C=C/S(=O)(=O)N1CCC2(CC1)N=C(c1cccc(C(F)(F)F)c1)NC2=O (stereo in doubt) [Compound 221, 8-{(E)-2-[4-((R)-2-hydroxymethyl-5-oxo-pyrrolidin-1-yl)-2-methyl-phenyl]-ethenesulfonyl}-2-(3-trifluoromethyl-phenyl)-1,3,8-triaza-spiro[4.5]dec-1-en-4-one]
18% | CO[C@H]1CC[C@@H](C2=NC3(CCN(S(=O)(=O)c4cccc(Cl)c4)CC3)C(=O)N2)CC1 [Compound 24, 8-(3-chloro-benzenesulfonyl)-2-(4-methoxy-cyclohexyl)-1,3,8-triaza-spiro[4.5]dec-1-en-4-one]
18% | CO[C@H]1CC[C@H](C2=NC3(CCN(S(=O)(=O)c4cccc(Cl)c4)CC3)C(=O)N2)CC1 [Compound 25, 8-(3-chloro-benzenesulfonyl)-2-(4-methoxy-cyclohexyl)-1,3,8-triaza-spiro[4.5]dec-1-en-4-one]
36% | CC(C)(C)[C@H]1CC[C@H](C2=NC3(CCN(S(=O)(=O)c4cccc(Cl)c4)CC3)C(=O)N2)CC1 [Compound 26, 2-(4-tert-butyl-cyclohexyl)-8-(3-chloro-benzenesulfonyl)-1,3,8-triaza-spiro[4.5]dec-1-en-4-one]
42% | O=C1NC(C2CCC(CF)CC2)=NC12CCN(S(=O)(=O)c1cccc(Cl)c1)CC2 (centres unmarked) [Compound 27, 8-(3-chloro-benzenesulfonyl)-2-(4-fluoromethyl-cyclohexyl)-1,3,8-triaza-spiro[4.5]dec-1-en-4-one]
31% | O=C1NC(CC2CCCCC2)=NC12CCN(S(=O)(=O)c1cccc(Cl)c1)CC2 [Compound 28, 8-(3-chloro-benzenesulfonyl)-2-cyclohexylmethyl-1,3,8-triaza-spiro[4.5]dec-1-en-4-one]
28% | O=C1NC(CCc2ccccc2)=NC12CCN(S(=O)(=O)c1cccc(Cl)c1)CC2 [Compound 29, 8-(3-chloro-benzenesulfonyl)-2-phenethyl-1,3,8-triaza-spiro[4.5]dec-1-en-4-one]
26% | O=C1NC(CCC2CCCCC2)=NC12CCN(S(=O)(=O)c1cccc(Cl)c1)CC2 [Compound 30, 8-(3-chloro-benzenesulfonyl)-2-(2-cyclohexyl-ethyl)-1,3,8-triaza-spiro[4.5]dec-1-en-4-one]
41% | O=C1NC(c2cccc(C(F)(F)F)c2)=NC12CCN(S(=O)(=O)c1cccc(Cl)c1)CC2 [Compound 31, 8-(3-chloro-benzenesulfonyl)-2-(3-trifluoromethyl-phenyl)-1,3,8-triaza-spiro[4.5]dec-1-en-4-one]
26% | CS(=O)(=O)c1cccc(C2=NC3(CCN(S(=O)(=O)c4cccc(Cl)c4)CC3)C(=O)N2)c1 [Compound 32, 8-(3-chloro-benzenesulfonyl)-2-(3-methanesulfonyl-phenyl)-1,3,8-triaza-spiro[4.5]dec-1-en-4-one]

Same assay, conditions: HKRK-B7 cells; compound at 3×10^−4 M (* Compound 15); cAMP produced as percentage of that produced by hPTH(1-34) at 100 nM

cAMP production activity (%) | Structure (SMILES)
1.8* % | CC(=O)N1CCC(C2=NC3(CCN(S(=O)(=O)c4cccc(Cl)c4)CC3)C(=O)N2)CC1 [Compound 15, 2-(1-acetyl-piperidin-4-yl)-8-(3-chloro-benzenesulfonyl)-1,3,8-triaza-spiro[4.5]dec-1-en-4-one]
